Test results as given in patent US9550740B2, “Antimicrobial compounds” (Dow Global Technologies LLC, priority 2012, dated 2017).

How the values were obtained:
Type in all cases: cell-based
[1] = tested on: pool of aerobic organisms (mixed pool of 6 bacterial species); experiment: Biocidal efficacy at room temperature, aerobic bacteria; details: for minimum dose needed to achieve 3-log reduction in bacteria levels: aerobic bacteria, ppm glutaraldehyde equivalent, tested 200 to 12 ppm
Protocol: (§1) Assay for Biocidal Efficacy at Room Temperature: Glutaraldehyde and Compounds 1 and 4 are tested for biocidal activity against a pool of aerobic organisms at room temperature and against sulfate reducing bacteria (SRB) at room temperature. Tests are performed as follows:
(§2) a. Stock preparation. Glutaraldehyde (50% in water) and Compounds 1 and 4 are each dissolved in DMSO to a concentration of 200 mM, which is equivalent to 20,000 ppm of free glutaraldehyde.
(§3) b. Aerobic Bacteria—a mixed pool of 6 bacterial species at approximately 5×10^6 CFU/mL in phosphate buffered saline is distributed into a 96-well plate. Each well receives an independent chemical treatment of the tested compounds at concentrations ranging from 200 ppm to 12 ppm glutaraldehyde. A control treatment of DMSO alone is also included. Each condition is tested in triplicate. After set periods of incubation (1, 4, and 24 h), the number of surviving cells in each well are enumerated by dilution to extinction in a medium containing resazurin dye as an indicator. c. Sulfate Reducing Bacteria (SRB)—SRB testing is performed as for the aerobic bacteria with the following modifications: the species Desulfovibrio longus is tested in anaerobic PBS and the enumeration of surviving cells is performed in a medium containing soluble iron as an indicator. d. Results: Values indicate minimum the dose needed (in ppm) to achieve 3-log reduction in bacteria levels. “n/a” indicates the threshold is not met at any of the tested doses. “N.D.” indicates no data available.

[2] = tested on: sulfate reducing bacteria (SRB), Desulfovibrio longus; experiment: Biocidal efficacy at room temperature, sulfate reducing bacteria (SRB); details: for minimum dose needed to achieve 3-log reduction in bacteria levels: SRB, anaerobic PBS, ppm glutaraldehyde equivalent, tested 200 to 12 ppm; for activity against SRB (in words): compared with glutaraldehyde
Protocol: as §1, §2, §3

[3] = tested on: Thermus thermophilus (ATCC 27634); experiment: Biocidal efficacy at elevated temperature; details: for log kill of treated bacterial populations relative to an untreated control: 50 ppm glutaraldehyde equivalent
Protocol: Compound 1 is dissolved in DMSO to yield a 200 mM solution such that the glutaraldehyde-equivalent concentration of the stock solution is 20,000 ppm. The bacterial strain Thermus thermophilus (ATCC 27634) is maintained at 70° C. After 24-48 hours of growth, 10 mL of bacterial culture is harvested by spinning in a Beckman-Coulter benchtop centrifuge at 3000 rpm for 15 min. The cell pellet is resuspended in 100 mL of phosphate-buffered saline (PBS) to give approximately 5×10^5 CFU/mL and aliquoted into 10 mL portions in glass test tubes fitted with screw caps. Samples are equilibrated to 37, 55, or 70° C. for 30 min and then treated with glutaraldehyde or Compound 1 at 50 ppm glutaraldehyde equivalent. The treated samples are returned to their respective equilibration temperatures for 4 h and then enumerated for surviving bacteria. After 24 h, the process is repeated by adding fresh grown bacteria to the samples to re-challenge the biocide. The samples are again enumerated after 4 h. Results are reported in terms of log kill of treated bacterial populations relative to an untreated control at each temperature. For values listed as “>x,” actual kill may have been higher but could not be detected by this assay.

[4] = 37 C., 24 hr (re-challenge with fresh bacteria, enumerated after 4 h)
[5] = 55 C., 24 hr (re-challenge with fresh bacteria, enumerated after 4 h)
[6] = 70 C., 24 hr (re-challenge with fresh bacteria, enumerated after 4 h)

Structure (SMILES)	biocidal activity against aerobic bacteria (in words) [1]	minimum dose needed to achieve 3-log reduction in bacteria levels ([1]; 1 hour incubation)	minimum dose needed to achieve 3-log reduction in bacteria levels ([1]; 4 hours incubation)	minimum dose needed to achieve 3-log reduction in bacteria levels ([1]; 24 hours incubation)	minimum dose needed to achieve 3-log reduction in bacteria levels ([2]; 1 hour incubation)	minimum dose needed to achieve 3-log reduction in bacteria levels ([2]; 4 hours incubation)	activity against SRB (in words) [2]	log kill of treated bacterial populations relative to an untreated control ([3]; 37 C., 4 hr)	log kill of treated bacterial populations relative to an untreated control [3, 4]	log kill of treated bacterial populations relative to an untreated control ([3]; 55 C., 4 hr)	log kill of treated bacterial populations relative to an untreated control [3, 5]	log kill of treated bacterial populations relative to an untreated control ([3]; 70 C., 4 hr)	log kill of treated bacterial populations relative to an untreated control [3, 6]	activity compared with glutaraldehyde (in words) ([3]; at each temperature tested (37, 55, 70 C.))	minimum dose needed to achieve 3-log reduction in bacteria levels ([2]; 24 hours incubation)
CN1CCC(c2ccccc2)OC1CCCC1OC(c2ccccc2)CCN1C (centres unmarked) [Compound 1, 1,3-bis(3-methyl-6-phenyl-1,3-oxazinan-2-yl)propane]	significant biocidal activity	59 ppm	26 ppm	40 ppm	133 ppm	133 ppm	some activity	>3	>4	>3	>3	>4	>4	equivalent activity to glutaraldehyde	–
CN1CCOC1CCCC1OCCN1C (centres unmarked) [Compound 4, 1,3-bis(3-methyloxazolidin-2-yl)propane]	limited activity	–	200 ppm	200 ppm	200 ppm	133 ppm	some activity	–	–	–	–	–	–	–	–
O=CCCCC=O [glut, Glutaraldehyde, reference compound]	–	26 ppm	26 ppm	26 ppm	89 ppm	18 ppm	–	>3	>4	>3	>3	>4	>4	–	<12 ppm
